Legend:
[1] = tested on: castrated male rats (levator ani, seminal vesicules, prostate); test: Anabolisant-androgenic activity, Hershberger technique slightly modified (castrated rats, oral); type: in vivo, rat; conditions: for Levator ani weight / Prostate weight / Seminal vesicules weight: oral, 10 days
Procedure: This test was effected using the technique of Hershberger [Proc. Soc. Exp. Biol. Med., Vol. 83 (1953), p. 175] slightly modified and groups of 5 male rats 19 to 21 days old were castrated and then were treated daily for 10 days by oral administration of the test product in a solution containing 0.5 ml of olive oil and 0.5 ml of water containing 0.25% of carboxymethylcellulose. The animals were killed 24 hours after the last treatment and the prostate and seminal vesicules were removed and fixed for 24 hours in a solution of 10% formol in physiological serum. They were then dissected and weighed and the levator ani was removed and weighed in a fresh state. The increase in the weight of the genital organs indicate the anabolisant-androgenic activity of 17β-n-amyloxy-Δ^4,9,11 -estratriene-3-one and the results are reported in Table I and compared to the results of other trienic steroids.

hepatic cells = test: Hepatonocivity study (rabbit, oral, 4 consecutive days); type: in vivo
Procedure: 17β-n-amyloxy-Δ^4,9,11 -estratriene-3-one was orally administered for 4 consecutive days to a rabbit at a dose of 10 mg/kg and the animal was killed on the 5th day. […] (BSP).

[2] = 10 mg/kg orally, 4 consecutive days

| SMILES | Levator ani weight ([1]; daily dose 100 μg/rat) | Prostate weight ([1]; daily dose 100 μg/rat) | Seminal vesicules weight ([1]; daily dose 100 μg/rat) | Levator ani weight ([1]; daily dose 10 μg/rat) | Prostate weight ([1]; daily dose 10 μg/rat) | Seminal vesicules weight ([1]; daily dose 10 μg/rat) | Levator ani weight ([1]; daily dose 1000 μg/rat) | Prostate weight ([1]; daily dose 1000 μg/rat) | Seminal vesicules weight ([1]; daily dose 1000 μg/rat) | also measured |
| --- | --- | --- | --- | --- | --- | --- | --- | --- | --- | --- |
| C=C(C)CO[C@H]1CC[C@H]2[C@@H]3CCC4=CC(=O)CCC4=C3C=C[C@]12C [17β-(2'-methyl)allyloxy-Δ^4,9,11 estratriene 3-one] | 23.5 mg | 39.0 mg | 16.7 mg |  |  |  |  |  |  | Levator ani weight ([1]; daily dose 20 μg/rat): 29.0 mg; Prostate weight ([1]; daily dose 20 μg/rat): 34.1 mg; Seminal vesicules weight ([1]; daily dose 20 μg/rat): 17.0 mg; Levator ani weight ([1]; daily dose 500 μg/rat): 37.5 mg; Prostate weight ([1]; daily dose 500 μg/rat): 66.2 mg; Seminal vesicules weight ([1]; daily dose 500 μg/rat): 52.3 mg |
| CC(C)=CCO[C@H]1CC[C@H]2[C@@H]3CCC4=CC(=O)CCC4=C3C=C[C@]12C [17β-(3'-methyl)but-2'-enyloxy Δ^4,9,11-estratriene-3-one] | 49.2 mg | 39.0 mg | 36.7 mg | 28.7 mg | 12.8 mg | 8.2 mg |  |  |  |  |
| C[C@]12C=CC3=C4CCC(=O)C=C4CC[C@H]3[C@@H]1CC[C@@H]2OCC1CC1 [17β-(cyclopropyl)-methoxy-Δ^4,9,11-estratriene-3-one] | 33.3 mg | 41.7 mg | 26.4 mg | 20.7 mg | 18.4 mg | 9.9 mg | 49.2 mg | 88.7 mg | 97.1 mg |  |
| CC(C)CO[C@H]1CC[C@H]2[C@@H]3CCC4=CC(=O)CCC4=C3C=C[C@]12C [17β-isobutyloxy-Δ^4,9,11-estratriene-3-one] | 41.9 mg | 46.4 mg | 28.7 mg | 24.6 mg | 13.5 mg | 9.2 mg | 44.0 mg | 104.8 mg | 116.0 mg |  |
| CCCCCO[C@H]1CC[C@H]2[C@@H]3CCC4=CC(=O)CCC4=C3C=C[C@]12C [17β-n-amyloxy-Δ^4,9,11-estratriene-3-one] |  |  |  | 28.4 mg | 27.7 mg | 13.1 mg |  |  |  | tolerance by the hepatic cells (hepatic cells; 5 mg/kg): well tolerated; rate of oxalacetic transaminase (SGOT) (hepatic cells; [2]): increase; rate of retention of bromosulfonephtalein (BSP) (hepatic cells; [2]): without having caused a change; anabolisant-androgenic activity compared to other Δ^4,9,11 -estratrienes ([1]; administered orally, rats): clearly much superior; Levator ani weight ([1]; daily dose 30 μg/rat): 47.1 mg; Prostate weight ([1]; daily dose 30 μg/rat): 44.7 mg; Seminal vesicules weight ([1]; daily dose 30 μg/rat): 23.5 mg; Levator ani weight ([1]; daily dose 90 μg/rat): 53.1 mg; Prostate weight ([1]; daily dose 90 μg/rat): 79.0 mg; Seminal vesicules weight ([1]; daily dose 90 μg/rat): 64.0 mg |
| CCCO[C@H]1CC[C@H]2[C@@H]3CCC4=CC(=O)CCC4=C3C=C[C@]12C [17β-n-propyloxy-Δ^4,9,11-estratriene 3-one] | 25.3 mg | 33.5 mg | 14.9 mg |  |  |  | 38.7 mg | 74.4 mg | 66.8 mg |  |

— patent US4105761A, “Anabolisant-androgenic compounds” (Roussel Uclaf, priority 1974, dated 1978)
